Reference: ChEMBL document CHEMBL1136238, “Synthesis and PDF inhibitory activities of novel benzothiazolylidenehydroxamic acid derivatives” (Bioorg Med Chem Lett, 2003)
In brackets after ≈: the same amount, converted by molar mass.

Tests used:
Pseudomonas aeruginosa = assay: In vitro minimum inhibitory concentration required against Pseudomonas aeruginosa ATCC 9027; format: functional
[1] = biological target: Peptide deformylase (Escherichia coli) (UniProt P0A6K3); assay: In vitro inhibitory concentration required against peptide deformylase (PDF)
Staphylococcus aureus = assay: In vitro minimum inhibitory concentration required against Staphylococcus aureus ATCC 10390; format: functional
Escherichia coli = assay: In vitro minimum inhibitory concentration required against Escherichia coli ATCC 25922; format: functional

Peptide deformylase (Escherichia coli), sequence (P0A6K3 whole entry, looked up): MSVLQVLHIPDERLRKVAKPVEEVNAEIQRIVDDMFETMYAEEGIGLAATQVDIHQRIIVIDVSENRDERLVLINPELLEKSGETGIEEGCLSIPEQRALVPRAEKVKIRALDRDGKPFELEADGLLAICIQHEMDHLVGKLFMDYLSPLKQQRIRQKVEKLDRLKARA

MIC (Pseudomonas aeruginosa)	IC50 [1]	MIC (Staphylococcus aureus)	MIC (Escherichia coli)	SMILES
> 100 µg/mL	> 100 µM	> 100 µg/mL	> 100 µg/mL	CCN1/C(=C/C(=O)NO)Sc2ccccc21
> 100 µg/mL	> 100 µM	> 100 µg/mL	> 100 µg/mL	CCCCN1/C(=C/C(=O)O)Sc2ccccc21
> 100 µg/mL	> 100 µM	> 100 µg/mL	> 100 µg/mL	CCCCN1/C(=C/C(=O)NO)S(=O)(=O)c2ccccc21
100 µg/mL (≈ 378 µM)			> 100 µg/mL	CCCCN1/C(=C/C(=O)NO)Sc2ccccc21
100 µg/mL (≈ 359 µM)	9.91 µM	100 µg/mL (≈ 359 µM)	> 100 µg/mL	CCCCCN1/C(=C/C(=O)NO)Sc2ccccc21
100 µg/mL (≈ 399 µM)	8.39 µM	10 µg/mL (≈ 39.9 µM)	> 100 µg/mL	CCCN1/C(=C/C(=O)NO)Sc2ccccc21
100 µg/mL (≈ 259 µM)		3 µg/mL (≈ 7.78 µM)	50 µg/mL (≈ 130 µM)	CCCCC[C@H](CC(=O)NO)C(=O)N[C@H](C(=O)N1CCC[C@H]1CO)C(C)C [ACTINONIN]
